# Laboratory results taken from patent US8618301B2, “5-phenylpyrazolopyridine derivatives, preparation and therapeutic use thereof” (Sanofi, priority 2009, dated 2013).
# pEC50: −log10 of the molar value.
# Experiments:
# mouse Nurr1 receptor = target: T1, mouse Nurr1 receptor (Mus musculus, UniProt Q06219); experiment: In vitro activity on N2A cells (8NBRE-luciferase reporter); format: cell-based; settings: N2A-8NBRE cells, 24 hours incubation
# T1 construct: a cell line (N2A) endogenously expressing the mouse Nurr1 receptor; host or cells: Neuro-2A (N2A) mouse neuroblastoma cells stably transfected with 8NBRE-luciferase
# Protocol: The compounds according to the invention have formed the subject of pharmacological assays which make it possible to determine their modulatory effect on NOT. Evaluation of the In Vitro Activity on N2A Cells
# The activity of the compounds according to the invention was evaluated on a cell line (N2A) endogenously expressing the mouse Nurr1 receptor and stably transfected with the NOT binding response element (NBRE) coupled to the luciferase reporter gene. The assays were carried out according to the procedure described below.
# The Neuro-2A cell line comes from a standard commercial source (ATCC). The Neuro-2A clone was obtained, from a spontaneous tumour originating from an A albino mouse strain, by R. J Klebe et al. This Neuro-2A line is subsequently stably transfected with 8NBRE-luciferase. The N2A-8NBRE cells are cultured until confluence in 75 cm^2 culture flasks containing DMEM supplemented with 10% of foetal calf serum, 4.5 g/l of glucose and 0.4 mg/ml of geneticin. After a week of culture, the cells are recovered with 0.25% trypsin for 30 seconds and then resuspended in DMEM without phenol red, containing 4.5 g/l of glucose and 10% of Hyclone delipidized serum, and deposited into transparent-bottom 96-well white plates. The cells are deposited at a rate of 60 000 per well in 75 μl for 24 hours before the addition of the products. The products are applied in 25 μl and incubated for a further 24 hours. On the day of the measurement, an equivalent volume (100 μl) of Steadylite is added to each well and then left for a period of 30 minutes in order to obtain complete cell lysis and maximum signal production. The plates are subsequently measured in a luminescence counter for microplates after having been sealed with an adhesive film. The products are prepared in the form of a stock solution at 10^−2M and then diluted in 100% of DMSO. Each product concentration is prediluted in culture medium before incubation with the cells, thus containing 0.625% final concentration of DMSO.
# T1 sequence (Q06219 whole entry): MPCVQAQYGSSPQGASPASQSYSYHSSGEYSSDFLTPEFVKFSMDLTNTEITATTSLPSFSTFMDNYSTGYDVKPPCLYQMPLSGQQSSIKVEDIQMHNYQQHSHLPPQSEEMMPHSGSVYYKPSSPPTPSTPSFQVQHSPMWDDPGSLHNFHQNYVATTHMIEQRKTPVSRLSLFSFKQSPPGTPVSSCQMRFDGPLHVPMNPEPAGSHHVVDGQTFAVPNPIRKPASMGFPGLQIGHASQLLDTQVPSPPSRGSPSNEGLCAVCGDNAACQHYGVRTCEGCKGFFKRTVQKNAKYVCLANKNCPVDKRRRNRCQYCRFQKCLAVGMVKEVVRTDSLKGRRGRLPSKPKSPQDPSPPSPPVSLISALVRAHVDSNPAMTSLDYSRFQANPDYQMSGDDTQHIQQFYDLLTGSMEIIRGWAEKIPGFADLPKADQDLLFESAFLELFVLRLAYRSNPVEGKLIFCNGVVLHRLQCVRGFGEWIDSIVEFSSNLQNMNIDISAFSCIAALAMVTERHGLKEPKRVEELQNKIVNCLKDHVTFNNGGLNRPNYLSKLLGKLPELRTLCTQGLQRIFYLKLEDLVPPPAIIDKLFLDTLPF
pEC50 (mouse Nurr1 receptor),melting point,Compound
9.70,161 to 164 °C,"OCc1cccc(-c2ccn3nc(-c4ccc(Cl)cc4)cc3c2)c1 [Compound 1, {3-[2-(4-chlorophenyl)pyrazolo[1,5-a]pyridin-5-yl]phenyl}methanol]"
–,159 to 161 °C,"CC(C)(O)c1cccc(-c2ccn3nc(-c4ccc(Cl)cc4)cc3c2)c1 [Compound 2, 2-{3-[2-(4-chlorophenyl)pyrazolo[1,5-a]pyridin-5-yl]phenyl}propan-2-ol]"
–,93 to 95 °C,"CC(O)c1cccc(-c2ccn3nc(-c4ccc(Cl)cc4)cc3c2)c1 (stereo not drawn) [Compound 3, 1-{3-[2-(4-chlorophenyl)pyrazolo[1,5-a]pyridin-5-yl]phenyl}ethanol]"
–,141 to 143 °C,"OCC1(c2cccc(-c3ccn4nc(-c5ccc(Cl)cc5)cc4c3)c2)CC1 [Compound 4, 1-{3-[2-(4-chlorophenyl)pyrazolo[1,5-a]pyridin-5-yl]phenyl}cyclopropylmethanol]"
–,190 to 192 °C,"OCc1c(F)ccc(-c2ccn3nc(-c4ccc(Cl)cc4)cc3c2)c1F [Compound 5, {3-[2-(4-chlorophenyl)pyrazolo[1,5-a]pyridin-5-yl]-2,6-difluorophenyl}-methanol]"
–,141 to 143 °C,"OCc1cccc(-c2ccn3nc(-c4ccc(F)cc4)cc3c2)c1 [Compound 6, {3-[2-(4-fluorophenyl)pyrazolo[1,5-a]pyridin-5-yl]phenyl}methanol]"
–,162 to 164 °C,"CC(C)(O)c1cccc(-c2ccn3nc(-c4ccc(F)cc4)cc3c2)c1 [Compound 7, 2-{3-[2-(4-fluorophenyl)pyrazolo[1,5-a]pyridin-5-yl]phenyl}propan-2-ol]"
–,132 to 134 °C,"CC(O)c1cccc(-c2ccn3nc(-c4ccc(F)cc4)cc3c2)c1 (stereo not drawn) [Compound 8, 1-{3-[2-(4-fluorophenyl)pyrazolo[1,5-a]pyridin-5-yl]phenyl}ethanol]"
–,130 to 132 °C,"COCc1cccc(-c2ccn3nc(-c4ccc(Cl)cc4)cc3c2)c1 [Compound 9, 2-(4-chlorophenyl)-5-(3-methoxymethylphenyl)pyrazolo[1,5-a]pyridine]"
–,214 to 216 °C,"OCc1ccc(-c2ccn3nc(-c4ccc(Cl)cc4)cc3c2)cc1 [Compound 10, {4-[2-(4-chlorophenyl)pyrazolo[1,5-a]pyridin-5-yl]phenyl}methanol]"
8.77,144 to 146 °C,"OCc1ccccc1-c1ccn2nc(-c3ccc(Cl)cc3)cc2c1 [Compound 11, {2-[2-(4-chlorophenyl)pyrazolo[1,5-a]pyridin-5-yl]phenyl}methanol]"
6.79,181 to 183 °C,"OC1CCc2ccc(-c3ccn4nc(-c5ccc(Cl)cc5)cc4c3)cc21 (stereo not drawn) [Compound 12, 6-[2-(4-chlorophenyl)pyrazolo[1,5-a]pyridin-5-yl]indan-1-ol]"
